US20160297763A1, “Heteroaryl hydroxamic acid derivatives and their use in the treatment, amelioration or prevention of a viral disease” (priority 2011, published 2016)

Columns and labels:
[1] = tested on: influenza A virus A/Aichi/2/68 (H3N2); test: Cytopathic effect (CPE) assay H3N2; assay type: cell-based, influenza A virus (H3N2) on MDCK cells; settings: Influenza A virus
Summary of the method: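 MDCK cells infected with A/Aichi/2/68 (H3N2) at MOI 0.05 in trypsin-containing medium, compound (generally 25 μM and 250 μM, 1% DMSO) added together with virus; 48 hrs at 37° C. Viability by ATP luminescence; % CPE reduction = infected-treated minus infected-untreated RLU, normalized to uninfected-treated viability.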

[2] = biological target: PB2 cap binding domain (CBD) (Influenza A virus, UniProt Q9Q0V1); test: biochemical; design: species or system avian H5N1 influenza virus
Chain of PB2 cap binding domain (CBD) (Q9Q0V1 318-483 limits assumed): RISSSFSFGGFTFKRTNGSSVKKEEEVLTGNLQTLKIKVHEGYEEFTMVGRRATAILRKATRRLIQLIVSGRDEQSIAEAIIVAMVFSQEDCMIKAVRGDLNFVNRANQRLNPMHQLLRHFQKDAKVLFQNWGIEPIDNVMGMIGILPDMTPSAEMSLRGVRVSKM

PA-Nter = PA-Nter (Influenza A virus, UniProt P31343); test: Biacore PA-Nter binding; settings: activity conc 50

| Compound | inhibition at 5 µM ([1]; H3N2, activity conc 5 (μM per method), read-out: CPE H3N2 reduction (%)) | IC50 ([1]; H3N2, read-out: CPE H3N2 IC50) | Kd [2] | Biacore PA-Nter Binding (RU) (PA-Nter) | inhibition at 2 µM ([1]; H3N2, activity conc 2 (μM per method), read-out: CPE H3N2 reduction (%)) | EC50 (ALPHA screen) |
| --- | --- | --- | --- | --- | --- | --- |
| Cc1c(-c2ccccc2)sc2nc(N)[nH]c(=O)c12 [SAV-7475] | 8.9% | 21 µM | 4.6 µM | 13.16 RU |  |  |
| Cc1c(-c2ccc(F)cc2F)sc2nc(N)[nH]c(=O)c12 [SAV-7610] |  |  | 3.8 µM |  | -1.6% | 0.62 µM |
